Measurements as given in paper doi:10.1101/2023.11.24.568596v1 (biorxiv, 2023).
Each block holds one compound with its values, some of them ahead of it.

Tests used:
Conditions in all cases: binder
Erk2 = Erk2 (Homo sapiens, UniProt P28482)
GPRK5 = GPRK5 (Homo sapiens, UniProt P34947)
MAP2K4 = molecular target: T1, MAP2K4 (Homo sapiens, UniProt P45985)
T1 sequence (P45985 1-399): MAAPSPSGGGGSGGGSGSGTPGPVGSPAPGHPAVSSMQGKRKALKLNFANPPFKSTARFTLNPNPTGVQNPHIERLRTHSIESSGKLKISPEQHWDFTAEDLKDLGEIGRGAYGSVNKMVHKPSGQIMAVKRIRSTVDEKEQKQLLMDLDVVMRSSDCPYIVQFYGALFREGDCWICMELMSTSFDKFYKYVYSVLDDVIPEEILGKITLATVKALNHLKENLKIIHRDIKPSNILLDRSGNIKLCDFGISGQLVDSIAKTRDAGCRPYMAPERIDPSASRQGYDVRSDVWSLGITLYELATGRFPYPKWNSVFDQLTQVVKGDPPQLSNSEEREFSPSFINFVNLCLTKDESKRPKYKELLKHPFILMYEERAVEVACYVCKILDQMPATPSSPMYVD

MELK = MELK (Homo sapiens, UniProt Q14680)
Chain of MELK (Q14680 whole entry): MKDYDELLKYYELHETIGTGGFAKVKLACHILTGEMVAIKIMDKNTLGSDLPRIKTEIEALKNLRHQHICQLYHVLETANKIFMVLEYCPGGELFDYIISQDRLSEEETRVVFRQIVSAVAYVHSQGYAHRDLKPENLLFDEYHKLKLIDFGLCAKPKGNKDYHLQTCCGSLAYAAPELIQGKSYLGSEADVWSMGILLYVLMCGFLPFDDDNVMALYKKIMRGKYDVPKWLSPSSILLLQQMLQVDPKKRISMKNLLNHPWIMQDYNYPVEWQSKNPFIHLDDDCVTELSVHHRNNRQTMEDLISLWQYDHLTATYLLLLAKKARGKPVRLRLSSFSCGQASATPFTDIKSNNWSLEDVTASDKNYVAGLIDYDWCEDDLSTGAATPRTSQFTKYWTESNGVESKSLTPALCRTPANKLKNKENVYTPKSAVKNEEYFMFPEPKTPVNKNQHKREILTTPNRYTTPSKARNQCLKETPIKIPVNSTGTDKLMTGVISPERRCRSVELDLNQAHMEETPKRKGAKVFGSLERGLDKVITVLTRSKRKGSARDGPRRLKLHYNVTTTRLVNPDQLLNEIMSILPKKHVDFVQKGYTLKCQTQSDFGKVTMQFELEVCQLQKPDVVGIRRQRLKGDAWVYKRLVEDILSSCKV

MER = molecular target: T2, MER (Homo sapiens, UniProt Q12866)
T2 sequence (Q12866 1-999): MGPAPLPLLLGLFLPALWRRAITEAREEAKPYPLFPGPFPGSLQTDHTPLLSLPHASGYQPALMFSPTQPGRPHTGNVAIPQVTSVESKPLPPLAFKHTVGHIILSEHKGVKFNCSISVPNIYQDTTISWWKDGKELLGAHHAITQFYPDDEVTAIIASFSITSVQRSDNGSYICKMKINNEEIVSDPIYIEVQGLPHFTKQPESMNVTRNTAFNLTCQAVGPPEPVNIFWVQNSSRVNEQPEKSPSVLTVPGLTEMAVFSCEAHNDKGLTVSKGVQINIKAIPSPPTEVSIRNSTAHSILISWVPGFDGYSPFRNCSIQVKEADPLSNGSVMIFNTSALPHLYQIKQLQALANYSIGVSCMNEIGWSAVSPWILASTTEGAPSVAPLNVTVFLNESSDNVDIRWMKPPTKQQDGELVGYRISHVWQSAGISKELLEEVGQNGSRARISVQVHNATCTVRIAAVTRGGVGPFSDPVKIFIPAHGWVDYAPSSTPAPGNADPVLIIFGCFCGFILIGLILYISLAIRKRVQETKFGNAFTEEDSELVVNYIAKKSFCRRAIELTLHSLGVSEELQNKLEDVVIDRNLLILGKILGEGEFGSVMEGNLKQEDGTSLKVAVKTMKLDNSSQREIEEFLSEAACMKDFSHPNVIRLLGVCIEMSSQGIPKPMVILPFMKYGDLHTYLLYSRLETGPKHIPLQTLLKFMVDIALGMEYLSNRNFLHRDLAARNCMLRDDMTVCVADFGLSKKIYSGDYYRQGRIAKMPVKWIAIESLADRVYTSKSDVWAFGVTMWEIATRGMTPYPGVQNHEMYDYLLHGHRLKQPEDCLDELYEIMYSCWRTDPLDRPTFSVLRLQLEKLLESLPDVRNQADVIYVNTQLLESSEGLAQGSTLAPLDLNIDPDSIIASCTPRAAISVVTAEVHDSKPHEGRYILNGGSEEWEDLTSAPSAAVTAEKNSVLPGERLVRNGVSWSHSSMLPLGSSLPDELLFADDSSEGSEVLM

NEK1 = molecular target: T3, NEK1 (Homo sapiens, UniProt Q96PY6)
T3 sequence (Q96PY6 1-1258): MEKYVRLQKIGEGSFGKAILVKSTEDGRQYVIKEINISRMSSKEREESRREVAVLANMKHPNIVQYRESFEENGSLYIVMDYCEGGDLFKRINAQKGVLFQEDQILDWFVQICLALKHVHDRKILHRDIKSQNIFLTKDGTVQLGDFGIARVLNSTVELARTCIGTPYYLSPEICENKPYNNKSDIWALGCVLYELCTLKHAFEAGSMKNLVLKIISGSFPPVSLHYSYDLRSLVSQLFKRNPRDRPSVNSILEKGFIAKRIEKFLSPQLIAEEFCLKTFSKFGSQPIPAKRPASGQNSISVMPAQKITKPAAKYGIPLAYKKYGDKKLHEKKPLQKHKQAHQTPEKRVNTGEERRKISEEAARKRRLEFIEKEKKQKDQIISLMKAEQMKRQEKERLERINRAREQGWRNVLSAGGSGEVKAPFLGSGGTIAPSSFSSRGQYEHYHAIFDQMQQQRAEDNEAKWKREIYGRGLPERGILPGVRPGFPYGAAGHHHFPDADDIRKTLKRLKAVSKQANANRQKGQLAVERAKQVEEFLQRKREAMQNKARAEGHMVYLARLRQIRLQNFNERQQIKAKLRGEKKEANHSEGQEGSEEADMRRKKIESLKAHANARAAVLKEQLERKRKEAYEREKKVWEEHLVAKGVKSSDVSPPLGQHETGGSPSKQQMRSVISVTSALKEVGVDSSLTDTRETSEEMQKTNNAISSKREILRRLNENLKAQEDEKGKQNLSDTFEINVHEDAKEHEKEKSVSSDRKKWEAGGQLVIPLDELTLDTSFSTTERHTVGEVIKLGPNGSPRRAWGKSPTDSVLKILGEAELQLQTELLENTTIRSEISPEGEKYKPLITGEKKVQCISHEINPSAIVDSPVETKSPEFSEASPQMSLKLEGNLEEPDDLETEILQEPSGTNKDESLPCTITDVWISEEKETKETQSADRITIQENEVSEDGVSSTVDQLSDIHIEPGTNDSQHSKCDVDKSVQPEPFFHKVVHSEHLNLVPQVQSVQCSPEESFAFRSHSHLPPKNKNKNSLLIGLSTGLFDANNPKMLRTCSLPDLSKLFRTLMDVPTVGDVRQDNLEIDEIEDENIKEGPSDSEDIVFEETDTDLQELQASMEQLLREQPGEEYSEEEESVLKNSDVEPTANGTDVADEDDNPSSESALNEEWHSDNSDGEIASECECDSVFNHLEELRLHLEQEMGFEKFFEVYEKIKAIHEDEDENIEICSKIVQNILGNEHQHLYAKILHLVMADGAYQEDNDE

Chain of Erk2 (P28482 whole entry): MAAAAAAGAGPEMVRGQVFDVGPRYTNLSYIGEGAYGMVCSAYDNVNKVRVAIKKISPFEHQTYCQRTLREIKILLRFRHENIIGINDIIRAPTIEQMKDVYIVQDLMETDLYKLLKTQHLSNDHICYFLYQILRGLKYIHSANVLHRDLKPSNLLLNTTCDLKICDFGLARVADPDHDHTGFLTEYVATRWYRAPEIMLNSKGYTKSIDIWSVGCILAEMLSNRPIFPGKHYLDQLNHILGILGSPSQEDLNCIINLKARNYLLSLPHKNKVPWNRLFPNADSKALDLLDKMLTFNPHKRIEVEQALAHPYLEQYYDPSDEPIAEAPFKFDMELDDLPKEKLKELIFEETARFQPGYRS
Chain of GPRK5 (P34947 whole entry): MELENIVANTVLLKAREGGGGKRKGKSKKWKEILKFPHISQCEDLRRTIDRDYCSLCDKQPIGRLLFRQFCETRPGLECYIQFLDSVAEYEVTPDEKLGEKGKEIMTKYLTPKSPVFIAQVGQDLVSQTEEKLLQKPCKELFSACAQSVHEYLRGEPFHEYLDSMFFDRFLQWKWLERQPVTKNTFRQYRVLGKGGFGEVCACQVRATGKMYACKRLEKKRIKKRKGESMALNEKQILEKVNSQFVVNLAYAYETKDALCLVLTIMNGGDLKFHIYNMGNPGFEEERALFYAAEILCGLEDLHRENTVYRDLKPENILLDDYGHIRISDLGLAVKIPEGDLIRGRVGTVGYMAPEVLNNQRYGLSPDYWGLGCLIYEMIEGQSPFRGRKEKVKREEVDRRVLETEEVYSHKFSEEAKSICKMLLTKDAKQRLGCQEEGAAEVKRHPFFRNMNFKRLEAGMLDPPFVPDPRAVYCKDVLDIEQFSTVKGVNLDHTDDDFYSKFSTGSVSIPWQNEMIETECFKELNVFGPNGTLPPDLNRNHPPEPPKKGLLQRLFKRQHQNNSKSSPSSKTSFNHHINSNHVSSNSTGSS

Structure (SMILES): Cc1cccc(-c2ccc(-c3cc4cnc(Nc5cc(C(F)(F)F)ccc5C)nc4n(CCCCN)c3=O)c(Cl)c2)n1 [compound 28, 8-(4-Aminobutyl)-6-(2-chloro-4-(6-methylpyridin-2-yl)phenyl)-2-((2-methyl-5-(trifluoromethyl)phenyl)amino)pyrido[2,3-d]pyrimidin-7(8H)-one]
- ΔTm 28 (Erk2): 0.7 °C
- ΔTm 28 (GPRK5): -0.6 °C
- ΔTm 28 (MAP2K4): 11.0 °C
- ΔTm 28 (MELK): 1.8 °C
- ΔTm 28 (MER): 0.1 °C
- ΔTm 28 (NEK1): 0.2 °C

Structure (SMILES): Cc1cccc(-c2ccc(-c3cc4cnc(Nc5ccc(CCCO)cc5)nc4n(CCCCN)c3=O)c(Cl)c2)n1 [compound 30, 8-(4-Aminobutyl)-6-(2-chloro-4-(6-methylpyridin-2-yl)phenyl)-2-((4-(3-hydroxypropyl)phenyl)amino)pyrido[2,3-d]pyrimidin-7(8H)-one]
- ΔTm 30 (Erk2): 3.5 °C
- ΔTm 30 (GPRK5): -0.9 °C
- ΔTm 30 (MAP2K4): 9.7 °C
- ΔTm 30 (MELK): 7.8 °C
- ΔTm 30 (MER): 3.1 °C
- ΔTm 30 (NEK1): -3.1 °C

Structure (SMILES): Cc1cccc(-c2ccc(-c3cc4cnc(NCCCN5CCCC5=O)nc4n(CCCCN)c3=O)c(Cl)c2)n1 [compound 27, MR30]
- ΔTm MR30 (27) (Erk2): 0.4 °C
- ΔTm MR30 (27) (GPRK5): -1.1 °C
- ΔTm MR30 (27) (MAP2K4): 5.2 °C
- ΔTm MR30 (27) (MELK): 5.8 °C
- ΔTm MR30 (27) (MER): 0.7 °C
- ΔTm MR30 (27) (NEK1): -0.3 °C

Structure (SMILES): Cc1cccc(-c2ccc(-c3cc4cnc(NCCCN5CCNCC5)nc4n(CCCCN)c3=O)c(Cl)c2)n1 [compound 29, 8-(4-Aminobutyl)-6-(2-chloro-4-(6-methylpyridin-2-yl)phenyl)-2-((3-(piperazin-1-yl)propyl)amino)pyrido[2,3-d]pyrimidin-7(8H)-one]
- ΔTm 29 (Erk2): -0.4 °C
- ΔTm 29 (GPRK5): -0.4 °C
- ΔTm 29 (MAP2K4): 3.5 °C
- ΔTm 29 (MELK): 6.5 °C
- ΔTm 29 (MER): 1.0 °C
- ΔTm 29 (NEK1): 0.3 °C

The remaining lines, values ahead:

- ΔTm 32 (Erk2): 1.9 °C
- ΔTm 32 (GPRK5): -0.4 °C
- ΔTm 32 (MAP2K4): 10.8 °C
- ΔTm 32 (MELK): 7.2 °C
- ΔTm 32 (MER): 2.8 °C
- ΔTm 32 (NEK1): -3.0 °C
Structure (SMILES): Cc1cccc(-c2ccc(-c3cc4cnc(Nc5ccc(C)c(O)c5)nc4n(CCCCN)c3=O)c(Cl)c2)n1 [compound 32, 8-(4-Aminobutyl)-6-(2-chloro-4-(6-methylpyridin-2-yl)phenyl)-2-((3-hydroxy-4-methylphenyl)amino)pyrido[2,3-d]pyrimidin-7(8H)-one]

- ΔTm 31 (Erk2): 1.3 °C
- ΔTm 31 (GPRK5): -0.2 °C
- ΔTm 31 (MAP2K4): 10.8 °C
- ΔTm 31 (MELK): 6.5 °C
- ΔTm 31 (MER): 3.3 °C
- ΔTm 31 (NEK1): -3.3 °C
Structure (SMILES): Cc1cccc(-c2ccc(-c3cc4cnc(Nc5ccc(O)cc5)nc4n(CCCCN)c3=O)c(Cl)c2)n1 [compound 31, 8-(4-Aminobutyl)-6-(2-chloro-4-(6-methylpyridin-2-yl)phenyl)-2-((4-hydroxyphenyl)amino) pyrido[2,3-d]pyrimidin-7(8H)-one]
